According to ChEMBL document CHEMBL4610038, “The synthesis of trifluoromethylated N-nitroaryl-2-amino-1,3-dichloropropane derivatives and their evaluation as potential anti-cancer agents” (Bioorg Med Chem Lett, 2020):

How the values were obtained:
CNE [1] = assay: Cytotoxicity against human CNE1 cells assessed as reduction in cell viability; format: functional, cell-based
MDA-MB-231 [2] = assay: Cytotoxicity against human MDA-MB-231 cells assessed as reduction in cell viability; format: functional, cell-based
HCT-116 [3] = assay: Cytotoxicity against human HCT116 cells assessed as cell viability at 100 uM relative to control; format: functional; details: read-out: Activity
SW1990 [4] = assay: Cytotoxicity against human SW1990 cells assessed as cell viability at 100 uM relative to control; format: functional; details: read-out: Activity
NCI-H1299 [5] = assay: Cytotoxicity against human H1299 cells assessed as reduction in cell viability; format: functional, cell-based
SW48 [6] = assay: Cytotoxicity against human SW48 cells assessed as reduction in cell viability; format: functional, cell-based
SUNE1 [7] = assay: Cytotoxicity against human SUNE1 cells assessed as reduction in cell viability; format: functional, cell-based
SH-SY5Y [8] = assay: Cytotoxicity against human SH-SY5Y cells assessed as reduction in cell viability; format: functional, cell-based
SW1990 [9] = assay: Cytotoxicity against human SW1990 cells assessed as reduction in cell viability; format: functional, cell-based
NCI-H1299 [10] = assay: Cytotoxicity against human H1299 cells assessed as cell viability at 100 uM relative to control; format: functional; details: read-out: Activity
MDA-MB-468 [11] = assay: Cytotoxicity against human MDA-MB-468 cells assessed as cell viability at 100 uM relative to control; format: functional; details: read-out: Activity
[12] = Cytotoxicity against human HK1 cells assessed as cell viability at 100 uM relative to control; format: functional; details: HK-1, read-out: Activity
A549 [13] = assay: Cytotoxicity against human A549 cells assessed as cell viability at 100 uM relative to control; format: functional; details: read-out: Activity
T47D [14] = assay: Cytotoxicity against human T47D cells assessed as cell viability at 100 uM relative to control; format: functional; details: read-out: Activity
SK-BR-3 [15] = assay: Cytotoxicity against human SKBR3 cells assessed as cell viability at 100 uM relative to control; format: functional; details: read-out: Activity
[16] = Cytotoxicity against human HK1 cells assessed as reduction in cell viability; format: functional, cell-based; details: HK-1
A549 [17] = assay: Cytotoxicity against human A549 cells assessed as reduction in cell viability; format: functional, cell-based
HCT-116 [18] = assay: Cytotoxicity against human HCT116 cells assessed as reduction in cell viability; format: functional, cell-based
MDA-MB-231 [19] = assay: Cytotoxicity against human MDA-MB-231 cells assessed as cell viability at 100 uM relative to control; format: functional; details: read-out: Activity
CNE [20] = assay: Cytotoxicity against human CNE1 cells assessed as cell viability at 100 uM relative to control; format: functional; details: read-out: Activity
MCF7 [21] = assay: Cytotoxicity against human MCF7 cells assessed as cell viability at 100 uM relative to control; format: functional; details: read-out: Activity
Caco-2 [22] = assay: Cytotoxicity against human Caco2 cells assessed as reduction in cell viability; format: functional, cell-based
ASPC1 [23] = assay: Cytotoxicity against human AsPC1 cells assessed as cell viability at 100 uM relative to control; format: functional; details: read-out: Activity
MCF7 [24] = assay: Cytotoxicity against human MCF7 cells assessed as reduction in cell viability; format: functional, cell-based
BXPC-3 [25] = assay: Cytotoxicity against human BxPC3 cells assessed as cell viability at 100 uM relative to control; format: functional; details: read-out: Activity
HT-29 [26] = assay: Cytotoxicity against human HT-29 cells assessed as reduction in cell viability; format: functional, cell-based
BXPC-3 [27] = assay: Cytotoxicity against human BxPC3 cells assessed as reduction in cell viability; format: functional, cell-based
Caco-2 [28] = assay: Cytotoxicity against human Caco2 cells assessed as cell viability at 100 uM relative to control; format: functional; details: read-out: Activity
ASPC1 [29] = assay: Cytotoxicity against human AsPC1 cells assessed as reduction in cell viability; format: functional, cell-based
HT-29 [30] = assay: Cytotoxicity against human HT-29 cells assessed as cell viability at 100 uM relative to control; format: functional; details: read-out: Activity
SK-BR-3 [31] = assay: Cytotoxicity against human SKBR3 cells assessed as reduction in cell viability; format: functional, cell-based
MRC5 = assay: Cytotoxicity against human MRC5 cells assessed as reduction in cell viability; format: cell-based
SH-SY5Y [32] = assay: Cytotoxicity against human SH-SY5Y cells assessed as cell viability at 100 uM relative to control; format: functional; details: read-out: Activity
SUNE1 [33] = assay: Cytotoxicity against human SUNE1 cells assessed as cell viability at 100 uM relative to control; format: functional; details: read-out: Activity
[34] = Cytotoxicity against human MRC5 cells assessed as cell viability at 100 uM relative to control; format: cell-based; details: read-out: Activity
T47D [35] = assay: Cytotoxicity against human T47D cells assessed as reduction in cell viability; format: functional, cell-based
[36] = Cytotoxicity against human MCF10A cells assessed as cell viability at 100 uM relative to control; format: cell-based, MCF-10A; details: read-out: Activity
MDA-MB-468 [37] = assay: Cytotoxicity against human MDA-MB-468 cells assessed as reduction in cell viability; format: functional, cell-based
MCF-10A = assay: Cytotoxicity against human MCF10A cells assessed as reduction in cell viability; format: cell-based
SW48 [38] = assay: Cytotoxicity against human SW48 cells assessed as cell viability at 100 uM relative to control; format: functional; details: read-out: Activity

Row | Compound | IC50 (CNE [1]) | IC50 (MDA-MB-231 [2]) | viability at 100 µM (HCT-116 [3]) | viability at 100 µM (SW1990 [4]) | IC50 (NCI-H1299 [5]) | IC50 (SW48 [6]) | IC50 (SUNE1 [7]) | IC50 (SH-SY5Y [8]) | IC50 (SW1990 [9]) | viability at 100 µM (NCI-H1299 [10]) | viability at 100 µM (MDA-MB-468 [11]) | viability at 100 µM [12] | viability at 100 µM (A549 [13]) | viability at 100 µM (T47D [14]) | viability at 100 µM (SK-BR-3 [15]) | IC50 [16] | IC50 (A549 [17]) | IC50 (HCT-116 [18]) | viability at 100 µM (MDA-MB-231 [19]) | viability at 100 µM (CNE [20]) | other results
1 | O=[N+]([O-])c1ccc(NC(CO)CO)c(C(F)(F)F)c1 | > 100 µM | > 100 µM | 84.9% | 72.4% | > 100 µM | > 100 µM | > 100 µM | > 100 µM | > 100 µM | 93.1% | 93.2% | 90.4% | 99.6% | 59.1% | 75.2% | > 100 µM | > 100 µM | > 100 µM | 93.1% | 82.5% | viability at 100 µM (MCF7 [21]): 45.7%; IC50 (Caco-2 [22]): > 100 µM; viability at 100 µM (ASPC1 [23]): 84.7%; IC50 (MCF7 [24]): 88.3 µM; viability at 100 µM (BXPC-3 [25]): 109%; IC50 (HT-29 [26]): > 100 µM; IC50 (BXPC-3 [27]): > 100 µM; viability at 100 µM (Caco-2 [28]): 101%; IC50 (ASPC1 [29]): > 100 µM; viability at 100 µM (HT-29 [30]): 84.2%; IC50 (SK-BR-3 [31]): > 100 µM; IC50 (MRC5): > 100 µM; viability at 100 µM (SH-SY5Y [32]): 74.7%; viability at 100 µM (SUNE1 [33]): 52.4%; viability at 100 µM [34]: 74.9%; IC50 (T47D [35]): > 100 µM; viability at 100 µM [36]: 88.8%; IC50 (MDA-MB-468 [37]): > 100 µM; IC50 (MCF-10A): > 100 µM; viability at 100 µM (SW48 [38]): 61.8%
2 | O=[N+]([O-])c1ccc(NC(CCl)CCl)c(C(F)(F)F)c1 | 15.3 µM | 42.4 µM | 24.5% | 28.6% | 49.1 µM | 33.4 µM | 55.1 µM | 33.7 µM | 33.3 µM | 38.1% | 20.4% | 61.4% | 37.1% | 24.3% | 55.6% | > 100 µM | 57.7 µM | 33.1 µM | 31.8% | 12.4% | viability at 100 µM (MCF7 [21]): 10.5%; IC50 (Caco-2 [22]): 10.1 µM; viability at 100 µM (ASPC1 [23]): 40.2%; IC50 (MCF7 [24]): 12.1 µM; viability at 100 µM (BXPC-3 [25]): 23.2%; IC50 (HT-29 [26]): 92.1 µM; IC50 (BXPC-3 [27]): 52.1 µM; viability at 100 µM (Caco-2 [28]): 9.5%; IC50 (ASPC1 [29]): 85.1 µM; viability at 100 µM (HT-29 [30]): 45.3%; IC50 (SK-BR-3 [31]): > 100 µM; IC50 (MRC5): 31 µM; viability at 100 µM (SH-SY5Y [32]): 21.6%; viability at 100 µM (SUNE1 [33]): 38.6%; viability at 100 µM [34]: 22.2%; IC50 (T47D [35]): 34.7 µM; viability at 100 µM [36]: 47.5%; IC50 (MDA-MB-468 [37]): 52.1 µM; IC50 (MCF-10A): 81 µM; viability at 100 µM (SW48 [38]): 26.5%
3 | O=[N+]([O-])c1ccc(NC(CCl)CCl)c([N+](=O)[O-])c1 | > 100 µM | > 100 µM | 73.1% | 69.8% | > 100 µM | > 100 µM | > 100 µM | > 100 µM | > 100 µM | 96.3% | 61.3% | 88.9% | 59.4% | 58.7% | 71.6% | > 100 µM | > 100 µM | > 100 µM | 83.4% | 70.5% | viability at 100 µM (MCF7 [21]): 25.1%; IC50 (Caco-2 [22]): > 100 µM; viability at 100 µM (ASPC1 [23]): 106%; IC50 (MCF7 [24]): 44.3 µM; viability at 100 µM (BXPC-3 [25]): 103%; IC50 (HT-29 [26]): > 100 µM; IC50 (BXPC-3 [27]): > 100 µM; viability at 100 µM (Caco-2 [28]): 105%; IC50 (ASPC1 [29]): > 100 µM; viability at 100 µM (HT-29 [30]): 89.1%; IC50 (SK-BR-3 [31]): > 100 µM; IC50 (MRC5): 54.1 µM; viability at 100 µM (SH-SY5Y [32]): 63.6%; viability at 100 µM (SUNE1 [33]): 68.6%; viability at 100 µM [34]: 24.3%; IC50 (T47D [35]): 85.3 µM; viability at 100 µM [36]: 78.8%; IC50 (MDA-MB-468 [37]): > 100 µM; IC50 (MCF-10A): > 100 µM; viability at 100 µM (SW48 [38]): 55.2%
4 | O=[N+]([O-])c1ccc(NC(CCl)CCl)cc1 | > 100 µM | > 100 µM | 79.4% | 55.1% | > 100 µM | > 100 µM | > 100 µM | > 100 µM | > 100 µM | 67.4% | 45.1% | 76.9% | 73.5% | 65.2% | 73.1% | > 100 µM | > 100 µM | > 100 µM | 72.4% | 88.1% | viability at 100 µM (MCF7 [21]): 38.8%; IC50 (Caco-2 [22]): > 100 µM; viability at 100 µM (ASPC1 [23]): 67.7%; IC50 (MCF7 [24]): 70.2 µM; viability at 100 µM (BXPC-3 [25]): 82.9%; IC50 (HT-29 [26]): > 100 µM; IC50 (BXPC-3 [27]): > 100 µM; viability at 100 µM (Caco-2 [28]): 91.6%; IC50 (ASPC1 [29]): > 100 µM; viability at 100 µM (HT-29 [30]): 60.9%; IC50 (SK-BR-3 [31]): > 100 µM; IC50 (MRC5): 58.3 µM; viability at 100 µM (SH-SY5Y [32]): 65.8%; viability at 100 µM (SUNE1 [33]): 110%; viability at 100 µM [34]: 44.9%; IC50 (T47D [35]): > 100 µM; viability at 100 µM [36]: 82.7%; IC50 (MDA-MB-468 [37]): > 100 µM; IC50 (MCF-10A): > 100 µM; viability at 100 µM (SW48 [38]): 58.8%
